In ChEMBL document CHEMBL4507318, “Data for DCP probe BAY-985” (2021):

Tests used:
[1] = biological target: Serine/threonine-protein kinase MRCK gamma (Homo sapiens) (UniProt Q6DT37)
[2] = biological target: Mitogen-activated protein kinase kinase kinase 19 (Homo sapiens) (UniProt Q56UN5)
[3] = test system: Phosphatidylinositol 4,5-bisphosphate 3-kinase catalytic subunit alpha isoform (Homo sapiens), P42336 [E545A]
[4] = biological target: Tyrosine-protein kinase receptor UFO (Homo sapiens) (UniProt P30530)
[5] = biological target: Tyrosine-protein kinase ABL1 (Homo sapiens) (UniProt P00519)
[6] = biological target: Mitogen-activated protein kinase kinase kinase kinase 4 (Homo sapiens) (UniProt O95819)
[7] = biological target: Receptor-type tyrosine-protein kinase FLT3 (Homo sapiens) (UniProt P36888)
[8] = biological target: Serine/threonine-protein kinase 24 (Homo sapiens) (UniProt Q9Y6E0)
[9] = test system: Phosphatidylinositol 4,5-bisphosphate 3-kinase catalytic subunit alpha isoform (Homo sapiens), P42336 [C420R]
[10] = biological target: Cyclin-dependent kinase 11A (Homo sapiens) (UniProt Q9UQ88)
[11] = biological target: Receptor-type tyrosine-protein kinase FLT3 (Homo sapiens) (UniProt P36888); remark: listed apart in the source
[12] = test system: Phosphatidylinositol 4,5-bisphosphate 3-kinase catalytic subunit alpha isoform (Homo sapiens), P42336 [M1043I]
[13] = biological target: Leukocyte tyrosine kinase receptor (Homo sapiens) (UniProt P29376)
[14] = biological target: Mitogen-activated protein kinase kinase kinase 14 (Homo sapiens) (UniProt Q99558)
[15] = biological target: D(1A) dopamine receptor (Homo sapiens) (UniProt P21728); conditions: Compound concentration 10.0 uM
[16] = biological target: Serine/threonine-protein kinase SIK2 (Homo sapiens) (UniProt Q9H0K1)
[17] = biological target: Serine/threonine-protein kinase pim-1 (Homo sapiens) (UniProt P11309)
[18] = biological target: Ephrin type-A receptor 1 (Homo sapiens) (UniProt P21709)
[19] = biological target: Mitogen-activated protein kinase kinase kinase kinase 1 (Homo sapiens) (UniProt Q92918)
[20] = biological target: Serine/threonine-protein kinase Chk1 (Homo sapiens) (UniProt O14757)
[21] = biological target: Non-receptor tyrosine-protein kinase TYK2 (Homo sapiens) (UniProt P29597)
[22] = biological target: Testis-specific serine/threonine-protein kinase 3 (Homo sapiens) (UniProt Q96PN8)
[23] = biological target: Mitogen-activated protein kinase kinase kinase 1 (Homo sapiens) (UniProt Q13233)
[24] = biological target: Interleukin-1 receptor-associated kinase 4 (Homo sapiens) (UniProt Q9NWZ3)
[25] = biological target: Atypical kinase COQ8A, mitochondrial (Homo sapiens) (UniProt Q8NI60)
[26] = biological target: Serine/threonine-protein kinase PLK1 (Homo sapiens) (UniProt P53350)
[27] = biological target: Calcium/calmodulin-dependent protein kinase type 1D (Homo sapiens) (UniProt Q8IU85)
[28] = biological target: Histamine H4 receptor (Homo sapiens) (UniProt Q9H3N8); conditions: Compound concentration 10.0 uM
[29] = biological target: Ribosomal protein S6 kinase alpha-4 (Homo sapiens) (UniProt O75676)
[30] = test system: Tyrosine-protein kinase ABL1 (Homo sapiens), P00519 [F317I]
[31] = biological target: Serine/threonine-protein kinase Nek1 (Homo sapiens) (UniProt Q96PY6)
[32] = biological target: Serine/threonine-protein kinase DCLK1 (Homo sapiens) (UniProt O15075)
[33] = biological target: Tyrosine-protein kinase Fes/Fps (Homo sapiens) (UniProt P07332)
[34] = biological target: Serine/threonine-protein kinase Nek9 (Homo sapiens) (UniProt Q8TD19)
[35] = biological target: Muscarinic acetylcholine receptor M5 (Homo sapiens) (UniProt P08912); conditions: Compound concentration 10.0 uM
[36] = biological target: Non-receptor tyrosine-protein kinase TYK2 (Homo sapiens) (UniProt P29597); remark: listed apart in the source
[37] = test system: Receptor-type tyrosine-protein kinase FLT3 (Homo sapiens), P36888 [R834Q]
[38] = test system: Receptor-type tyrosine-protein kinase FLT3 (Homo sapiens), P36888 [UNDEFINED MUTATION]
[39] = biological target: Tyrosine-protein kinase Tec (Homo sapiens) (UniProt P42680)
[40] = biological target: Atypical kinase COQ8B, mitochondrial (Homo sapiens) (UniProt Q96D53)
[41] = biological target: Interferon-induced, double-stranded RNA-activated protein kinase (Homo sapiens) (UniProt P19525)
[42] = biological target: TGF-beta receptor type-2 (Homo sapiens) (UniProt P37173)
[43] = biological target: Maternal embryonic leucine zipper kinase (Homo sapiens) (UniProt Q14680)
[44] = test system: Receptor-type tyrosine-protein kinase FLT3 (Homo sapiens), P36888 [D835H]
[45] = Compound concentration 1000.0 nM
[46] = Compound concentration 100.0 nM

Non-receptor tyrosine-protein kinase TYK2 (Homo sapiens), sequence (P29597 whole entry): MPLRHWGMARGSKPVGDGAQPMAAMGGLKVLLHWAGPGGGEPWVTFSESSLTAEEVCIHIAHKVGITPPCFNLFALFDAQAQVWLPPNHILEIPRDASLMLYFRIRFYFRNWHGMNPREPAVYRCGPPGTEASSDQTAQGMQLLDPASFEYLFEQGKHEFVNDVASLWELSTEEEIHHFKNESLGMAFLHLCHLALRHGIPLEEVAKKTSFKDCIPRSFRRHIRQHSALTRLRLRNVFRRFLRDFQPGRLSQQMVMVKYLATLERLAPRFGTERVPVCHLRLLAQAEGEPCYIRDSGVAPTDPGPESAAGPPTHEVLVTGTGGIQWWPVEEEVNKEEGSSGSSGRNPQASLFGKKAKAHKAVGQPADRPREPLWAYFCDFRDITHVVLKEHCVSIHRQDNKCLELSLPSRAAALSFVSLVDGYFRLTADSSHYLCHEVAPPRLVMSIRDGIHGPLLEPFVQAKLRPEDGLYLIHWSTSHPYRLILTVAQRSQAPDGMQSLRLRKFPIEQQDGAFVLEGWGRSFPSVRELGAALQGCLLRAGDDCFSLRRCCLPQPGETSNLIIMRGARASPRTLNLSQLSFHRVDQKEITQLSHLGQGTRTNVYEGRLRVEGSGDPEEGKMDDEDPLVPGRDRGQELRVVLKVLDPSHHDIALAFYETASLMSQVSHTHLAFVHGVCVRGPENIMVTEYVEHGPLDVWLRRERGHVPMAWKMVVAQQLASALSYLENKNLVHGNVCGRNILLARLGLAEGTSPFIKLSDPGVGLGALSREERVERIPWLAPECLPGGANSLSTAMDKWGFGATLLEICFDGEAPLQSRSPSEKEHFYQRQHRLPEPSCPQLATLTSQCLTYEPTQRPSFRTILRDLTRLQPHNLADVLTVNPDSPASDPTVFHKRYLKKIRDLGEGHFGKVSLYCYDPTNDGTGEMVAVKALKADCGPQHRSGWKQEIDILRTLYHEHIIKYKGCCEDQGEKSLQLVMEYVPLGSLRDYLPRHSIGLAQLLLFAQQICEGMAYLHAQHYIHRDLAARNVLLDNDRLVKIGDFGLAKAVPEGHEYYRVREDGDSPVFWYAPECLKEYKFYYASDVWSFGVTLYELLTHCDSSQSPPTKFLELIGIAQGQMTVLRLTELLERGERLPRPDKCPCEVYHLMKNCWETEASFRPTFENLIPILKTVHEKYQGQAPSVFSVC
Tyrosine-protein kinase Tec (Homo sapiens), sequence (P42680 whole entry): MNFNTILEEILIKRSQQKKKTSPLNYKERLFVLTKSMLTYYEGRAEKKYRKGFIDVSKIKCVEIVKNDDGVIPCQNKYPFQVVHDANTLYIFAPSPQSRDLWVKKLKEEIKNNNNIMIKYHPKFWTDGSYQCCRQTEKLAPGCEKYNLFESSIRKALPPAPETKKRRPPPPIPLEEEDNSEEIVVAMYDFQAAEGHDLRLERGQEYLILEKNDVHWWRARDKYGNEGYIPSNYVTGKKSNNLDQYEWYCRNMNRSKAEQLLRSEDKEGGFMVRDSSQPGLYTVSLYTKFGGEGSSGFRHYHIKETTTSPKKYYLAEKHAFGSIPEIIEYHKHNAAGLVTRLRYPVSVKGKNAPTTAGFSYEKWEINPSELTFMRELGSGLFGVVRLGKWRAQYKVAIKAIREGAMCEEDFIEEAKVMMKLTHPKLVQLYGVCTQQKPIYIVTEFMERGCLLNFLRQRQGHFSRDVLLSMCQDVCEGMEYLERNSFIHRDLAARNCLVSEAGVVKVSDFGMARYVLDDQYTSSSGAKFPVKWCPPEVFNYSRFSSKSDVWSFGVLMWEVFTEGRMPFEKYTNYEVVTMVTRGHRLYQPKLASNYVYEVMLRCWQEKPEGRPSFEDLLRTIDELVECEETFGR
Interleukin-1 receptor-associated kinase 4 (Homo sapiens), sequence (Q9NWZ3 whole entry): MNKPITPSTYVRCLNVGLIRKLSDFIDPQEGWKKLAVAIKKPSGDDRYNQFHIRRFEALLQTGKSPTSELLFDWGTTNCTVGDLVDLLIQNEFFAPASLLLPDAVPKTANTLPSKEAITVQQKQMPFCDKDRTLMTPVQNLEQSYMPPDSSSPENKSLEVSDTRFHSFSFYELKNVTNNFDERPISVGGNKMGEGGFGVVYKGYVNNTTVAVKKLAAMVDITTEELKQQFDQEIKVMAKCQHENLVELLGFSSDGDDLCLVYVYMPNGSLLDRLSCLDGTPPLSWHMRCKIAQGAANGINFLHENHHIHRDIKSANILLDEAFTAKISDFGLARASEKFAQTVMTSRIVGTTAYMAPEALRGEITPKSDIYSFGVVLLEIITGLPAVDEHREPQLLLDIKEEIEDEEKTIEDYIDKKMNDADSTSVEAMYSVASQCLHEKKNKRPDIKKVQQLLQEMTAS
Phosphatidylinositol 4,5-bisphosphate 3-kinase catalytic subunit alpha isoform (Homo sapiens), P42336 [E545A], sequence (P42336 whole entry E545A, canonical isoform): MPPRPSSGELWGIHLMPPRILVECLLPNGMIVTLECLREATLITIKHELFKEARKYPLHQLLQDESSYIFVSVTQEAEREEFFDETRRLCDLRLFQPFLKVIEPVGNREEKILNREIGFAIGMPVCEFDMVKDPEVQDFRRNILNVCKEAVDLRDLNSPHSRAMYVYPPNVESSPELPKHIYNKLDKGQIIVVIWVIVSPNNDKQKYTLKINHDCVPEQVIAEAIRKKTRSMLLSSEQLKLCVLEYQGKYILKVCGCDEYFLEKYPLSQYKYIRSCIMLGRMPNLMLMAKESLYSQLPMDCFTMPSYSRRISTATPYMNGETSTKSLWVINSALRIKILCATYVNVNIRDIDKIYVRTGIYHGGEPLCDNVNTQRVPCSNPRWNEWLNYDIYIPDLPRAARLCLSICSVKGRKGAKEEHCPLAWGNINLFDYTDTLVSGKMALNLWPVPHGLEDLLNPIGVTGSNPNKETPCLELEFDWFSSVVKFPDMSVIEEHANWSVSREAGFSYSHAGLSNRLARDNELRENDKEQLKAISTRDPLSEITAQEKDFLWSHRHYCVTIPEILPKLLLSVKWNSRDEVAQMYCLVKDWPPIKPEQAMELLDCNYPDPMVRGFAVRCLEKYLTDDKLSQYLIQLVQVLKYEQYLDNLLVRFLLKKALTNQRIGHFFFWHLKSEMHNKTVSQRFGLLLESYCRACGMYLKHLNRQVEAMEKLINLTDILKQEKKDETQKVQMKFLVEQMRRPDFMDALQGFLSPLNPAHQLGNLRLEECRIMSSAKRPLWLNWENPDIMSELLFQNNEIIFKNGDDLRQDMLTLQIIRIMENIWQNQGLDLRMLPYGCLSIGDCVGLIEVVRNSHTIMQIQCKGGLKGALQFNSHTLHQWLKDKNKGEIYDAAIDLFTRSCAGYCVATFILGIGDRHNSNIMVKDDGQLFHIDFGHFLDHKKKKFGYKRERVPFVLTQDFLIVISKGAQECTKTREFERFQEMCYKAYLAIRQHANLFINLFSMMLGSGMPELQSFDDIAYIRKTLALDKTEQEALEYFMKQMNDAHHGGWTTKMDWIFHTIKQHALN
Phosphatidylinositol 4,5-bisphosphate 3-kinase catalytic subunit alpha isoform (Homo sapiens), P42336 [M1043I], sequence (P42336 whole entry M1043I, canonical isoform): as the sequence (P42336 whole entry E545A, canonical isoform) above, with A545E, M1043I counted along it
Atypical kinase COQ8B, mitochondrial (Homo sapiens), sequence (Q96D53 whole entry): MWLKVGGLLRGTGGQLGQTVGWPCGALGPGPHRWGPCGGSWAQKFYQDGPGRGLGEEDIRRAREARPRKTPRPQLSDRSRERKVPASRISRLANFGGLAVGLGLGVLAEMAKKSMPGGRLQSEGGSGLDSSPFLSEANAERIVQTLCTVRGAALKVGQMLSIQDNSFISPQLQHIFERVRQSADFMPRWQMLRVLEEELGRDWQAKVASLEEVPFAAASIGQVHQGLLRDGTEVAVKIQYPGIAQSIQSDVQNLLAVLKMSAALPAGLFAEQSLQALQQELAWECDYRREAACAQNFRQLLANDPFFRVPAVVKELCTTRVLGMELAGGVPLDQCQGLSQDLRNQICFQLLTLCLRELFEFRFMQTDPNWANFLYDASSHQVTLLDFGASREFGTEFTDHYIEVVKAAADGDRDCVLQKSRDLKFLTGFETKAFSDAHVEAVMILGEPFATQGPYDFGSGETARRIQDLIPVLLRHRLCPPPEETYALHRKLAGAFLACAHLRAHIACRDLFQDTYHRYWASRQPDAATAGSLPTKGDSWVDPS

CN(C)c1ncnc(-c2ccc3nc(Nc4cc(CN5CCN(C(=O)CC(F)(F)F)CC5)ccn4)[nH]c3c2)c1Cl [BAY-440]
residual activity [1, 45]: 100% | residual activity [2, 45]: 15% | residual activity [3, 45]: 100% | residual activity [4, 45]: 57% | residual activity [5, 45]: 26% | residual activity [6, 45]: 100% | residual activity [7, 45]: 71% | residual activity [8, 45]: 90% | residual activity [9, 45]: 88% | residual activity [10, 45]: 100% | residual activity [11, 45]: 71% | residual activity [12, 45]: 56% | residual activity [13, 45]: 88% | residual activity [14, 45]: 62% | inhibition [15]: 23% | residual activity [16, 45]: 59% | residual activity [17, 45]: 100% | residual activity [18, 45]: 100% | residual activity [19, 45]: 91% | residual activity [20, 45]: 97% | residual activity [21, 45]: 77% | residual activity [22, 45]: 62% | residual activity [23, 45]: 100% | residual activity [24, 45]: 39% | residual activity [25, 45]: 100% | residual activity [26, 45]: 59% | residual activity [27, 45]: 100% | inhibition [28]: -2.29% | residual activity [29, 45]: 80% | residual activity [30, 45]: 28% | residual activity [31, 45]: 88% | residual activity [32, 45]: 92% | residual activity [33, 45]: 100% | residual activity [34, 45]: 100% | inhibition [35]: 12.4% | residual activity [36, 45]: 51% | residual activity [37, 45]: 77% | residual activity [38, 45]: 35% | residual activity [39, 45]: 100% | residual activity [40, 45]: 90% | residual activity [41, 45]: 100% | residual activity [42, 45]: 85% | residual activity [43, 45]: 95% | residual activity [44, 45]: 42%

C[C@H](c1ccnc(Nc2nc3ccc(-c4cc(N(C)C)ncn4)cc3[nH]2)c1)N1CCN(C(=O)CC(F)(F)F)CC1 [BAY-985]
residual activity [1, 46]: 79% | residual activity [2, 46]: 10% | residual activity [3, 46]: 100% | residual activity [4, 46]: 100% | residual activity [5, 46]: 89% | residual activity [6, 46]: 91% | residual activity [7, 46]: 95% | residual activity [8, 46]: 64% | residual activity [9, 46]: 100% | residual activity [10, 46]: 84% | residual activity [11, 46]: 67% | residual activity [12, 46]: 84% | residual activity [13, 46]: 100% | residual activity [14, 46]: 100% | inhibition [15]: 1.63% | residual activity [16, 46]: 79% | residual activity [17, 46]: 79% | residual activity [18, 46]: 99% | residual activity [19, 46]: 51% | residual activity [20, 46]: 87% | residual activity [21, 46]: 100% | residual activity [22, 46]: 74% | residual activity [23, 46]: 100% | residual activity [24, 46]: 100% | residual activity [25, 46]: 100% | residual activity [26, 46]: 100% | residual activity [27, 46]: 95% | inhibition [28]: -0.75% | residual activity [29, 46]: 100% | residual activity [30, 46]: 100% | residual activity [31, 46]: 93% | residual activity [32, 46]: 96% | residual activity [33, 46]: 75% | residual activity [34, 46]: 100% | inhibition [35]: 18.7% | residual activity [36, 46]: 100% | residual activity [37, 46]: 100% | residual activity [38, 46]: 42% | residual activity [39, 46]: 100% | residual activity [40, 46]: 79% | residual activity [41, 46]: 100% | residual activity [42, 46]: 98% | residual activity [43, 46]: 100% | residual activity [44, 46]: 71%
